For assay [1], the system named is Staphylococcus aureus ATCC 29213 (MSSA). The assay can be described thus: minimum inhibitory concentration; extreme values may be limits of the assay. The essentials: (§1)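 Methicillin-susceptible and methicillin-resistant Staphylococcus aureus were assessed by broth microdilution with a resazurin read-out, compounds spanning 0 to 100 µM and incubated for 24 h at 37°C before 30 µl of 0.015% resazurin was added for 2–4 h. For the minimum inhibitory concentration, the lowest concentration whose well stayed blue rather than pink was recorded.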

Assay [2] relates to Staphylococcus aureus ATCC 700699 (MRSA). The assay is described as above. The essentials:
as §1

In brackets after ≈: the same amount, converted by molar mass. Where only a bound is given, the exact number is not on record here.

Regarding `CCNC(=O)C(C)Nc1nc(-c2cccnc2)nc2sc(C)c(C)c12` (stereo unspecified), the minimum inhibitory concentration in assay [1] and in assay [2] was > 50 µM each time.
On to `NS(=O)(=O)c1cccc(-c2ccc3ncc(N4CCOCC4)nc3c2)c1`, for which the minimum inhibitory concentration in assay [1] and in assay [2] was > 50 µM each time.
In the case of `COC(=O)c1c(NC(=O)c2cc3ccccc3oc2=O)sc2c1CCN(Cc1ccccc1)C2`, the minimum inhibitory concentration in assay [1] and in assay [2] was > 50 µM each time.
On to `O=C(CN1CCOCC1)Nc1ccc2ncnc(Nc3ccc(OCc4cccc(F)c4)c(Cl)c3)c2c1`, for which the minimum inhibitory concentration in assay [1] and in assay [2] was > 50 µM in each case.
As for `Cc1ccc2cc(C3NC(=O)c4ccccc4N3)c(Cl)nc2c1` (stereo unspecified), the minimum inhibitory concentration in assay [1] and in assay [2] was > 50 µM each time.
With `Oc1c(I)cc(I)c2cccnc12`, the minimum inhibitory concentration in assay [1] is > 50 µM; in assay [2], 50 µM (≈ 19.8 µg/mL).
On to `CC1CS(=O)(=O)CCN1/N=C/c1ccc([N+](=O)[O-])o1` (stereo unspecified), for which the minimum inhibitory concentration in assay [1] and in assay [2] was > 50 µM throughout.
For the molecule `NC(=O)c1cc(-c2ccsc2)ccc1OCCOc1ccccc1`, the minimum inhibitory concentration in assay [1] and in assay [2] was > 50 µM each time.
With `O=C(Nc1nc(-c2ccccn2)cs1)C1CC1c1ccccc1F` (stereo unspecified), the minimum inhibitory concentration in assay [1] and in assay [2] was > 50 µM each time.
Consider `c1cncc(NCc2ccc(-c3cc4ccncc4cc3OC3CCNCC3)s2)c1`, for which the minimum inhibitory concentration in assay [1] and in assay [2] was > 50 µM each time.
As for `CN1CCN(CCCOc2ncc(Nc3ncc(-c4ccc(C(F)(F)F)c(F)c4)nc3C(N)=O)cn2)CC1`, the minimum inhibitory concentration in assay [1] and in assay [2] was > 50 µM throughout.
For `CNC(=O)C1Cc2c([nH]c3cc(Cl)ccc23)C2(CCN(CCc3ccccc3)CC2)N1` (stereo unspecified), the minimum inhibitory concentration in assay [1] and in assay [2] was > 50 µM in each case.
Take `CC(C)(C(=O)Nc1ccc(F)cc1)n1cc(-c2ccccc2F)cn1`: the minimum inhibitory concentration in assay [1] and in assay [2] was > 50 µM each time.
Regarding `NCC(c1cccs1)S(=O)(=O)c1ccccc1` (stereo unspecified), the minimum inhibitory concentration in assay [1] and in assay [2] was > 50 µM in each case.
Turning to `O=C(Nc1ccccc1-c1nc2c(C(=O)O)cccc2o1)c1ccccc1`, the minimum inhibitory concentration in assay [1] and in assay [2] was > 50 µM in each case.
As for `CCOc1ccc(-c2nc(NC(=O)CS(=O)(=O)c3ccccc3)sc2C)cc1`, the minimum inhibitory concentration in assay [1] and in assay [2] was > 50 µM in each case.
Turning to `CC(C)(C)c1ccc(N[C@@H]2CCCC[C@H]2NC(=O)c2ccco2)cc1`, the minimum inhibitory concentration in assay [1] and in assay [2] was > 50 µM in each case.
`CCN(CC)CCCCCCNc1cc(OC)cc2c(C)ccnc12`: the minimum inhibitory concentration in assay [1] and in assay [2] was > 50 µM throughout.
With `COc1ccc(C2=NN(C3CCCCCC3)C(=O)C2(C)C)cc1OCCCCOc1ccc(-c2nn[nH]n2)cc1`, the minimum inhibitory concentration in assay [1] and in assay [2] was 50 µM (≈ 27.3 µg/mL) throughout.
Take `CCCCc1ccc(NC(=O)Nc2ccc(O[C@H]3CCCC[C@@H]3N(C)c3ccccc3)c(F)c2)cc1`: the minimum inhibitory concentration in assay [1] and in assay [2] was > 50 µM throughout.
As to `COc1cc(NC(C)CCCN)c2ncccc2c1` (stereo unspecified), the minimum inhibitory concentration in assay [1] and in assay [2] was > 50 µM in each case.
`O=C(NCCN1CCCC1)c1cc(NCCCCN2CCC(F)(F)CC2)nc2ccc(Cl)cc12`: the minimum inhibitory concentration in assay [1] and in assay [2] was > 50 µM in each case.
As to `Cc1c[nH]c(CCNC(=O)c2cc(-c3ccc(Cl)cc3)cs2)n1`, the minimum inhibitory concentration in assay [1] and in assay [2] was > 50 µM throughout.
Consider `Nc1ncnc2c1c(Cc1cccc3ccccc13)nn2CC1CCNCC1`, for which the minimum inhibitory concentration in assay [1] and in assay [2] was > 50 µM throughout.
For `Cc1nc(-c2ccccn2)nc(NCCc2ccc(S(C)(=O)=O)cc2)c1Cl`, the minimum inhibitory concentration in assay [1] and in assay [2] was > 50 µM throughout.
In the case of `N#Cc1ccc(-c2cnc(N)c(-c3ccc(C(N)=O)cc3)n2)cc1`, the minimum inhibitory concentration in assay [1] and in assay [2] was > 50 µM each time.
Take `c1ccc(Oc2ccc(-c3cc(C4CCOCC4)[nH]n3)cc2)cc1`: the minimum inhibitory concentration in assay [1] and in assay [2] was > 50 µM each time.
Turning to `O=C(NCCc1ccccc1)c1cc(-c2cccnc2)cnc1NCC1CC1`, the minimum inhibitory concentration in assay [1] and in assay [2] was > 50 µM in each case.
Turning to `C[C@]1(COc2ccc(N3CCC(Oc4ccc(OC(F)(F)F)cc4)CC3)cc2)Cn2cc([N+](=O)[O-])nc2O1`, the minimum inhibitory concentration in assay [1] and in assay [2] was > 50 µM throughout.
In the case of `CCOc1ccc2cc(-c3nn(C(C)(C)C)c(N)c3C(N)=O)cnc2c1`, the minimum inhibitory concentration in assay [1] and in assay [2] was > 50 µM each time.
Take `CCc1ccc(S(=O)(=O)Nc2cc(CN3CCN(CCC(C)C)CC3)ccc2C)cc1`: the minimum inhibitory concentration in assay [1] and in assay [2] was > 50 µM in each case.
Consider `Cc1ccc(-c2nc(CN(Cc3ccccn3)C(C)C)cs2)o1`, for which the minimum inhibitory concentration in assay [1] and in assay [2] was > 50 µM in each case.
With `CCN(CC)S(=O)(=O)c1ccc(Cl)c(C(=O)Nc2ccc3nc(C)sc3c2)c1`, the minimum inhibitory concentration in assay [1] and in assay [2] was > 50 µM throughout.
With `O=C(Nc1ccc(F)c(-c2nc3cc(-c4ccccc4)cnc3[nH]2)c1)N1CCCC1`, the minimum inhibitory concentration in assay [1] and in assay [2] was > 50 µM throughout.
`Cc1cc(Cl)c(S(=O)(=O)N2CCCC2)cc1OCC(=O)NC1CCCCC1`: the minimum inhibitory concentration in assay [1] and in assay [2] was > 50 µM throughout.
For the molecule `CC(=O)Nc1ccc(NC(=O)c2cc(-c3cc(Cl)ccc3O)n[nH]2)cc1`, the minimum inhibitory concentration in assay [1] and in assay [2] was > 50 µM throughout.
Regarding `c1ccc(Oc2ccc(-c3cc(N4CCNCC4)[nH]n3)cc2)cc1`, the minimum inhibitory concentration in assay [1] and in assay [2] was > 50 µM throughout.
With `Nc1ncc(Br)cc1-c1nc2cc(Cl)cnc2[nH]1`, the minimum inhibitory concentration in assay [1] and in assay [2] was > 50 µM each time.
In the case of `Cc1cc(C(=O)Nc2ccc(-c3ccccc3)cc2)no1`, the minimum inhibitory concentration in assay [1] and in assay [2] was > 50 µM throughout.
With `FC(F)(F)c1cccc(-c2nc3c(NCc4ccncc4)nccc3[nH]2)c1`, the minimum inhibitory concentration in assay [1] and in assay [2] was > 50 µM each time.
As for `O=C(NC1CCN(c2ccnc3ccccc23)C1)c1cccc(C(F)(F)F)c1` (stereo unspecified), the minimum inhibitory concentration in assay [1] and in assay [2] was > 50 µM in each case.
On to `NS(=O)(=O)c1cncc(-c2ccc3nccc(-c4cn[nH]c4)c3n2)c1`, for which the minimum inhibitory concentration in assay [1] and in assay [2] was > 50 µM each time.
Turning to `CCOC(=O)NC(=O)c1ccsc1NC(=O)c1nc2ccccc2s1`, the minimum inhibitory concentration in assay [1] and in assay [2] was > 50 µM each time.
Consider `O=C(Nc1cccnc1)c1c(O)c2cccc3c2n(c1=O)CC3`, for which the minimum inhibitory concentration stood at 25 µM (≈ 7.68 µg/mL) in assay [1] and 50 µM (≈ 15.4 µg/mL) in assay [2].
The corresponding values for `FC(F)(F)c1cc(NCCc2ccccc2)nc(-c2ccccn2)n1` are > 50 µM and > 50 µM.
Consider `NCCCC(N)(C(=O)O)C(F)F` (stereo unspecified), for which the minimum inhibitory concentration in assay [1] and in assay [2] was > 50 µM each time.
With `Cc1ccc(C(=O)Nc2ccc(S(=O)(=O)O)c3cc(S(=O)(=O)O)cc(S(=O)(=O)O)c23)cc1NC(=O)c1cccc(NC(=O)Nc2cccc(C(=O)Nc3cc(C(=O)Nc4ccc(S(=O)(=O)O)c5cc(S(=O)(=O)O)cc(S(=O)(=O)O)c45)ccc3C)c2)c1`, the minimum inhibitory concentration in assay [1] and in assay [2] was > 50 µM in each case.
`COc1ccc(-c2cnc3cnc(-c4cccc(OC(C)C)c4)cn23)cc1`: the minimum inhibitory concentration in assay [1] and in assay [2] was > 50 µM throughout.
Regarding `CC(=O)NC[C@@H]1CN(c2ccc(N3CCOCC3)c(F)c2)C(=O)O1`, the minimum inhibitory concentration in assay [1] is 6.25 µM (≈ 2.11 µg/mL); in assay [2], 3.12 µM (≈ 1.05 µg/mL).
In the case of `CCOC(=O)c1noc(N)c1-c1ccccc1`, the minimum inhibitory concentration in assay [1] and in assay [2] was 50 µM (≈ 11.6 µg/mL) in each case.
With `N=C(N)c1ccc(-c2cc(-c3ccccc3)on2)cc1`, the minimum inhibitory concentration in assay [1] and in assay [2] was > 50 µM each time.
For the molecule `COc1cc(NC(=O)Cc2nn(C)c(=O)c3ccccc23)ccc1Cl`, the minimum inhibitory concentration in assay [1] and in assay [2] was > 50 µM each time.
Take `O=C([C@@H](c1ccc(Cl)cc1)c1cccnc1)N1CCN(c2ccc(C(F)(F)F)cc2)CC1`: the minimum inhibitory concentration in assay [1] and in assay [2] was 50 µM (≈ 23 µg/mL) each time.
As for `Cc1[nH]c2ccccc2c1C(c1cccs1)N1CCN(C)CC1` (stereo unspecified), the minimum inhibitory concentration in assay [1] and in assay [2] was 50 µM (≈ 16.3 µg/mL) in each case.
Consider `Nc1ccc2ncnc(Nc3ccc(OCc4cccc(F)c4)c(Cl)c3)c2c1`, for which the minimum inhibitory concentration in assay [1] and in assay [2] was > 50 µM throughout.
`O=C(Nc1c(O)cccc1-c1nc2c(C(=O)O)cccc2o1)c1cc(-c2ccccc2)on1`: the minimum inhibitory concentration in assay [1] and in assay [2] was > 50 µM in each case.
In the case of `CC[C@@H](CO)NCCN[C@@H](CC)CO`, the minimum inhibitory concentration in assay [1] and in assay [2] was > 50 µM each time.
`COc1ccc(C2(C(=O)Nc3ccc(Br)cc3)CCCC2)cc1`: the minimum inhibitory concentration in assay [1] and in assay [2] was > 50 µM in each case.
